This is an account of results in ChEMBL document CHEMBL3045236, “Conventional and microwave techniques for synthesis and antimicrobial studies of novel 1-[2-(2-chloro(3-quinolyl))-5-(4-nitrophenyl)-(1,3,4-oxadiazolin-3-yl)]-3-(aryl)prop-2-en-1-ones” (2012).

Values after ≈ are worked out from the molar mass of the structure shown.

What all share (format): functional
The test system of one experiment is Staphylococcus aureus. The experiment can be described thus: Antimicrobial activity against Staphylococcus aureus MTCC 96 after 24 and 48 hr by serial broth dilution method. A general note: Dilution methods test growth across graded concentrations, often in twofold steps.
In the next experiment the test system is Aspergillus niger. The experiment can be described thus: Antimicrobial activity against Aspergillus niger MTCC 282.
For the next experiment, the system named is Pseudomonas aeruginosa. The experiment can be described thus: Antimicrobial activity against Pseudomonas aeruginosa MTCC 1688 after 24 and 48 hr by serial broth dilution method.
The subject of another experiment is Escherichia coli. The experiment can be described thus: Antimicrobial activity against Escherichia coli MTCC 443 after 24 and 48 hr by serial broth dilution method.
For another experiment, the system named is Aspergillus clavatus. The experiment can be described thus: Antimicrobial activity against Aspergillus clavatus MTCC 1323.
The next experiment relates to Streptococcus pyogenes. The experiment can be described thus: Antimicrobial activity against Streptococcus pyogenes MTCC 442 after 24 and 48 hr by serial broth dilution method.
The subject of another experiment is Candida albicans. The experiment can be described thus: Antimicrobial activity against Candida albicans MTCC 227.

What is called MIC is the least concentration at which growth counts as inhibited. A low value points to greater potency. As to `COc1cc(/C=C/C(=O)N2N=C(c3ccc([N+](=O)[O-])cc3)OC2c2cc3ccccc3nc2Cl)cc(OC)c1OC` (stereo unspecified), the MIC in the experiment on Staphylococcus aureus worked out at 500 mg/L (≈ 870 µM); against Aspergillus niger it was 100 mg/L (≈ 174 µM); against Pseudomonas aeruginosa, 200 mg/L (≈ 348 µM); in the experiment on Escherichia coli it was 200 mg/L (≈ 348 µM); in the experiment on Aspergillus clavatus it was 100 mg/L (≈ 174 µM); in the experiment on Streptococcus pyogenes it was 500 mg/L (≈ 870 µM). Besides, inhibition of growth in the experiment on Candida albicans (MIC) required 100 mg/L (≈ 174 µM).

Consider `O=C(/C=C/c1cccc(Cl)c1)N1N=C(c2ccc([N+](=O)[O-])cc2)OC1c1cc2ccccc2nc1Cl` (stereo unspecified), for which the MIC in the experiment on Staphylococcus aureus was 100 mg/L (≈ 193 µM); in the experiment with Aspergillus niger, 100 mg/L (≈ 193 µM); with Pseudomonas aeruginosa, 200 mg/L (≈ 385 µM); against Escherichia coli it was 100 mg/L (≈ 193 µM); in the experiment with Aspergillus clavatus, 500 mg/L (≈ 963 µM); with Streptococcus pyogenes, 100 mg/L (≈ 193 µM). The compound also had a minimum inhibitory concentration (MIC) against Candida albicans of 100 mg/L (≈ 193 µM).

With `O=C(/C=C/c1cccc(O)c1)N1N=C(c2ccc([N+](=O)[O-])cc2)OC1c1cc2ccccc2nc1Cl` (stereo unspecified), the MIC with Staphylococcus aureus stood at 200 mg/L (≈ 399 µM); against Aspergillus niger, 200 mg/L (≈ 399 µM); in the experiment on Pseudomonas aeruginosa, 50 mg/L (≈ 99.8 µM); in the experiment with Escherichia coli, 25 mg/L (≈ 49.9 µM); against Aspergillus clavatus, 100 mg/L (≈ 200 µM); against Streptococcus pyogenes it was 100 mg/L (≈ 200 µM). The compound further displayed an MIC with Candida albicans of 500 mg/L (≈ 998 µM).

Regarding `O=C(/C=C/c1ccccc1O)N1N=C(c2ccc([N+](=O)[O-])cc2)OC1c1cc2ccccc2nc1Cl` (stereo unspecified), the MIC is 500 mg/L (≈ 998 µM) in the experiment with Staphylococcus aureus; 500 mg/L (≈ 998 µM) in the experiment with Aspergillus niger; 250 mg/L (≈ 499 µM) against Pseudomonas aeruginosa; 500 mg/L (≈ 998 µM) in the experiment with Escherichia coli; 500 mg/L (≈ 998 µM) against Aspergillus clavatus; 250 mg/L (≈ 499 µM) in the experiment on Streptococcus pyogenes. For the same compound, in the experiment on Candida albicans, inhibition of growth (MIC) required 1000 mg/L (≈ 2000 µM).

Consider `O=C(/C=C/c1ccccc1Cl)N1N=C(c2ccc([N+](=O)[O-])cc2)OC1c1cc2ccccc2nc1Cl` (stereo unspecified), for which the MIC against Staphylococcus aureus, against Aspergillus niger, in the experiment on Pseudomonas aeruginosa, in the experiment on Escherichia coli, in the experiment with Aspergillus clavatus and in the experiment with Streptococcus pyogenes was 500 mg/L (≈ 963 µM) each time. The compound further came in with an MIC against Candida albicans of 250 mg/L (≈ 481 µM).

For `Cc1ccc(/C=C/C(=O)N2N=C(c3ccc([N+](=O)[O-])cc3)OC2c2cc3ccccc3nc2Cl)cc1` (stereo unspecified), the MIC in the experiment on Staphylococcus aureus was determined as 200 mg/L (≈ 401 µM); in the experiment on Aspergillus niger, 100 mg/L (≈ 200 µM); against Pseudomonas aeruginosa it was 100 mg/L (≈ 200 µM); in the experiment on Escherichia coli, 200 mg/L (≈ 401 µM); against Aspergillus clavatus it was 1000 mg/L (≈ 2000 µM); against Streptococcus pyogenes, 250 mg/L (≈ 501 µM). This compound also showed an MIC in the experiment on Candida albicans of 250 mg/L (≈ 501 µM).

Consider `O=C(/C=C/c1ccc([N+](=O)[O-])cc1)N1N=C(c2ccc([N+](=O)[O-])cc2)OC1c1cc2ccccc2nc1Cl` (stereo unspecified), for which the MIC against Staphylococcus aureus is 100 mg/L (≈ 189 µM); in the experiment with Aspergillus niger, 1000 mg/L (≈ 1890 µM); against Pseudomonas aeruginosa, 500 mg/L (≈ 944 µM); with Escherichia coli it was 100 mg/L (≈ 189 µM); in the experiment on Aspergillus clavatus, 100 mg/L (≈ 189 µM); with Streptococcus pyogenes it was 500 mg/L (≈ 944 µM). Further, inhibition of growth in the experiment on Candida albicans (MIC) required 500 mg/L (≈ 944 µM).

For `COc1ccc(/C=C/C(=O)N2N=C(c3ccc([N+](=O)[O-])cc3)OC2c2cc3ccccc3nc2Cl)cc1` (stereo unspecified), the MIC in the experiment with Staphylococcus aureus was found to be 100 mg/L (≈ 194 µM); against Aspergillus niger it was 1000 mg/L (≈ 1940 µM); against Pseudomonas aeruginosa it was 500 mg/L (≈ 971 µM); against Escherichia coli, 100 mg/L (≈ 194 µM); with Aspergillus clavatus, 100 mg/L (≈ 194 µM); against Streptococcus pyogenes it was 100 mg/L (≈ 194 µM). The compound also displayed an MIC in the experiment with Candida albicans of 500 mg/L (≈ 971 µM).

As for `O=C(/C=C/c1ccc(O)cc1)N1N=C(c2ccc([N+](=O)[O-])cc2)OC1c1cc2ccccc2nc1Cl` (stereo unspecified), the MIC in the experiment on Staphylococcus aureus was 100 mg/L (≈ 200 µM); against Aspergillus niger, 100 mg/L (≈ 200 µM); in the experiment with Pseudomonas aeruginosa, 50 mg/L (≈ 99.8 µM); in the experiment on Escherichia coli, 250 mg/L (≈ 499 µM); against Aspergillus clavatus it was 500 mg/L (≈ 998 µM); in the experiment on Streptococcus pyogenes it was 500 mg/L (≈ 998 µM). The same compound displayed an MIC with Candida albicans of 500 mg/L (≈ 998 µM).

In the case of `CC1(C)S[C@@H]2[C@H](NC(=O)[C@H](N)c3ccccc3)C(=O)N2[C@H]1C(=O)O` [AMPICILLIN], the minimum inhibitory concentration (MIC) worked out at 250 mg/L (≈ 715 µM) against Staphylococcus aureus, 100 mg/L (≈ 286 µM) with Pseudomonas aeruginosa, 100 mg/L (≈ 286 µM) with Escherichia coli and 100 mg/L (≈ 286 µM) with Streptococcus pyogenes.

For `O=C(/C=C/c1ccc(Cl)cc1)N1N=C(c2ccc([N+](=O)[O-])cc2)OC1c1cc2ccccc2nc1Cl` (stereo unspecified), the minimum inhibitory concentration (MIC) in the experiment with Staphylococcus aureus stood at 1000 mg/L (≈ 1930 µM); against Aspergillus niger, 200 mg/L (≈ 385 µM); in the experiment with Pseudomonas aeruginosa, 100 mg/L (≈ 193 µM); with Escherichia coli, 200 mg/L (≈ 385 µM); in the experiment with Aspergillus clavatus, 1000 mg/L (≈ 1930 µM); in the experiment with Streptococcus pyogenes it was 500 mg/L (≈ 963 µM). In addition, in the experiment on Candida albicans, the MIC came out at 100 mg/L (≈ 193 µM).

On to `O=C(/C=C/c1ccccc1[N+](=O)[O-])N1N=C(c2ccc([N+](=O)[O-])cc2)OC1c1cc2ccccc2nc1Cl` (stereo unspecified), for which the minimum inhibitory concentration (MIC) turned out to be 500 mg/L (≈ 944 µM) in the experiment with Staphylococcus aureus; 500 mg/L (≈ 944 µM) against Aspergillus niger; 50 mg/L (≈ 94.4 µM) against Pseudomonas aeruginosa; 50 mg/L (≈ 94.4 µM) against Escherichia coli; 100 mg/L (≈ 189 µM) against Aspergillus clavatus; 200 mg/L (≈ 377 µM) in the experiment with Streptococcus pyogenes. This compound registered a minimal inhibitory concentration (MIC) in the experiment with Candida albicans of 500 mg/L (≈ 944 µM).

With `COC1=CC(=O)C[C@@H](C)[C@]12Oc1c(Cl)c(OC)cc(OC)c1C2=O` [GRISEOFULVIN], the minimum inhibitory concentration (MIC) in the experiment with Aspergillus niger came to 100 mg/L (≈ 283 µM); against Aspergillus clavatus, 100 mg/L (≈ 283 µM); against Candida albicans it was 500 mg/L (≈ 1420 µM).

For the compound `O=C(/C=C/c1cccc([N+](=O)[O-])c1)N1N=C(c2ccc([N+](=O)[O-])cc2)OC1c1cc2ccccc2nc1Cl` (stereo unspecified), the MIC against Staphylococcus aureus is 500 mg/L (≈ 944 µM); in the experiment on Aspergillus niger it was 100 mg/L (≈ 189 µM); in the experiment on Pseudomonas aeruginosa it was 500 mg/L (≈ 944 µM); against Escherichia coli, 1000 mg/L (≈ 1890 µM); against Aspergillus clavatus it was 500 mg/L (≈ 944 µM); against Streptococcus pyogenes, 100 mg/L (≈ 189 µM). Also, it took 100 mg/L (≈ 189 µM) to inhibit growth with Candida albicans (MIC).
